pIC50: −log10 of the molar value.

human NaV 1.8, sequence (Q9Y5Y9 126-1722 limits assumed): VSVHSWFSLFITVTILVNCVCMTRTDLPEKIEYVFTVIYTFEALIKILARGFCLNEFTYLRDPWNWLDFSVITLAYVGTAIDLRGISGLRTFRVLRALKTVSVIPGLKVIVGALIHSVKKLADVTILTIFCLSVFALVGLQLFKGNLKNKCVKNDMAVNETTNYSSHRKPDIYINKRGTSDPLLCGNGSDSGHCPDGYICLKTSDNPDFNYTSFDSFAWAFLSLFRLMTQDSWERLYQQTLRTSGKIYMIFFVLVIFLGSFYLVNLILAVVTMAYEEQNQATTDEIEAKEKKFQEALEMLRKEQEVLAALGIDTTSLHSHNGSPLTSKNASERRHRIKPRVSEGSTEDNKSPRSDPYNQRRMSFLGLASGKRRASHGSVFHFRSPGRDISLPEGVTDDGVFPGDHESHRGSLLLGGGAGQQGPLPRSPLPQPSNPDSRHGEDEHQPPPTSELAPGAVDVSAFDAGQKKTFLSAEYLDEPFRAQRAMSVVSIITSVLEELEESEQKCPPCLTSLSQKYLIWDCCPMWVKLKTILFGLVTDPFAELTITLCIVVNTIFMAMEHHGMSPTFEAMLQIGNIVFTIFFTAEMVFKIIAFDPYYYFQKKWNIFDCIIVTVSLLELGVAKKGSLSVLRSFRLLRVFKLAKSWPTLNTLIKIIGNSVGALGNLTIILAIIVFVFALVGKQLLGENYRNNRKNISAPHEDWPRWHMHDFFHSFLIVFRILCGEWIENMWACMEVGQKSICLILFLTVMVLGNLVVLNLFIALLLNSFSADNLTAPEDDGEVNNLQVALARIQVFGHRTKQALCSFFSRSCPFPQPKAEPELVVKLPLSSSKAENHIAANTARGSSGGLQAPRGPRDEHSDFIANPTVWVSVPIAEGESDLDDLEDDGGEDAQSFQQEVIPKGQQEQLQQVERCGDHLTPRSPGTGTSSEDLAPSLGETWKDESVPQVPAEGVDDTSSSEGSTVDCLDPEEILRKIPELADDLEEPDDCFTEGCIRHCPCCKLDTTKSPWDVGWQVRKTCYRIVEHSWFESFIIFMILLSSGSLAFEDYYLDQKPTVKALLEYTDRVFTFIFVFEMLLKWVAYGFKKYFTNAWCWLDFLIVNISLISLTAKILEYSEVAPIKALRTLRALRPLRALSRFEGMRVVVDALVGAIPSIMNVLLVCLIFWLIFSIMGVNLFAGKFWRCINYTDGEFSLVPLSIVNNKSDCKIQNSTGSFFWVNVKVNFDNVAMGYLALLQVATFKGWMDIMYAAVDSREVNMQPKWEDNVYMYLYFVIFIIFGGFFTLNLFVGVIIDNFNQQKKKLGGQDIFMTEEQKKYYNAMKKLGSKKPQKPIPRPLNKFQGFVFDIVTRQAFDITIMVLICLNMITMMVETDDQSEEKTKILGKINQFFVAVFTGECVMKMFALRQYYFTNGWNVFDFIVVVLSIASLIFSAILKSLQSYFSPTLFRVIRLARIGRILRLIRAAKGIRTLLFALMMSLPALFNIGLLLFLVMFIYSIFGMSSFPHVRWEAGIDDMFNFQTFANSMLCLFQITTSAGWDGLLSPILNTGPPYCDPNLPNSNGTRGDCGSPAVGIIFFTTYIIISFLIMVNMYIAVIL

In the first experiment the target is human NaV 1.8 (Homo sapiens, UniProt Q9Y5Y9). The experiment in a line: E-VIPR Assay Detecting and Measuring NaV Inhibition Properties. It counts as cell-based. Particulars: HEK cells expressing a truncated form of human NaV 1.8; compound number with "*": assay performed in the presence of human serum. An excerpt:
Sodium ion channels are voltage-dependent proteins that can be activated by inducing membrane voltage changes by applying electric fields. The electrical stimulation instrument and methods of use, referred to as E-VIPR, are described in International Publication No. WO 2002/008748 A3 and C.-J. Huang et al. Characterization of voltage-gated sodium channel blockers by electrical stimulation and fluorescence detection of membrane potential, 24 Nature Biotech. 439-46 (2006), both of which are incorporated by reference in their entirety. The instrument comprises a microtiter plate handler, an optical system for exciting the coumarin dye while simultaneously recording the coumarin and oxonol emissions, a waveform generator, a current- or voltage-controlled amplifier, and parallel electrode pairs that are inserted into assay plate wells. Under integrated computer control, this instrument passes user-programmed electrical stimulus protocols to cells within the wells of the microtiter plate.
16-20 hours prior to running the assay on E-VIPR, HEK cells expressing a truncated form of human NaV 1.8 with full channel activity were seeded into microtiter 384-well plates, pre-coated with matrigel, at a density of 25,000 cells per well. 2.5-5% KIR2.1 Bacmam virus was added to the final cell suspension before seeding into cell plates. HEK cells were grown in Dulbecco's Modified Eagle's Medium (DMEM) supplemented with 10% FBS (Fetal Bovine Serum, qualified; Sigma #F4135), 1% NEAA (Non-Essential Amino Acids, Gibco #11140), 1% HEPES (Gibco #15630), 1% Pen-Strep (Penicillin-Streptomycin; Gibco #15140) and 5 μg/ml Blasticidin (Gibco #R210-01). Cells were expanded in vented cap cell culture flasks, with 90-95% humidity and 5% CO2.
Reagents and Stock Solutions:
• 100 mg/mL Pluronic F-127 (Sigma #P2443), in dry DMSO • Compound Plates: Corning 384-well Polypropylene Round Bottom #3656 • Cell Plates: 384-well tissue culture treated plates (Greiner #781091-2B)
2.5-5% KIR 2.1 Bacmam virus (produced in-house), prepared as described in Section 3.3 of J. A. Fornwald et al., Gene Expression in Mammalian Cells Using BacMam, a Modified Baculovirus System, 1350 Methods in Molecular Biology 95-116 (2016), the entire contents of which are incorporated by reference. The concentration used can be dependent on viral titer of each batch.
5 mM DiSBAC6(3), a voltage sensitive oxonol acceptor (CAS number 169211-44-3; 5-[3-(1,3-dihexylhexahydro-4,6-dioxo-2-thioxo-5-pyrimidinyl)-2-propen-1-ylidene]-1,3-dihexyldihydro-2-thioxo-4,6(1H,5H)-pyrimidinedione), in dry DMSO. The preparation of DiSBAC6(3) is analogous to that of DiSBAC4(3) as described in Voltage Sensing by Fluorescence Resonance Energy Transfer in Single Cells, Gonzalez, J. E. and Tsien, R. Y. (1995) Biophys. J. 69, 1272-1280.
5 mM CC2-DMPE, a commercially available membrane-bound coumarin phospholipid FRET donor (ThermoFisher Scientific catalog number K1017, CAS number 393782-57-5; tetradecanoic acid, 1,1′-[(1R)-1-[8-(6-chloro-7-hydroxy-2-oxo-2H-1-benzopyran-3-yl)-3-hydroxy-3-oxido-8-oxo-2,4-dioxa-7-aza-3-phosphaoct-1-yl]-1,2-ethanediyl] ester) was prepared in dry DMSO. See also, Improved indicators of cell membrane potential that use fluorescence resonance energy transfer, Gonzalez, J. E. and Tsien, R. Y. (1997) Chem. Biol. 4, 269-277.
Voltage Assay Background Suppression Compound (VABSC-1) is prepared in H2O (89-363 mM, range used to maintain solubility)
Human Serum (HS, Millipore #S1P1-01KL, or Sigma SLBR5469V and SLBR5470V as a 50%/50% mixture, for 25% assay final concentration)
• Sodium Chloride 160 mM (9.35 g/L), Potassium Chloride, 4.5 mM (0.335 g/L), Glucose 10 mM (1.8 g/L), Magnesium Chloride (Anhydrous) 1 mM (0.095 g/L), Calcium Chloride 2 mM (0.222 g/L), HEPES 10 mM (2.38 g/L) in water. […]
For `COc1c([C@@H]2[C@H](OC)[C@H](C)O[C@H]2C(=O)Nc2ccnc([C@@H](O)CO)c2)ccc(F)c1F` (single isomer, unassigned) [Compound 9, rel-(2R*,3R*,4S*,5S*)-3-(3,4-difluoro-2-methoxyphenyl)-N-(2-(1,2-dihydroxyethyl)pyridin-4-yl)-4-methoxy-5-methyltetrahydrofuran-2-carboxamide], the pIC50 was at most 6.00.
With `COc1c([C@@H]2[C@H](OC)[C@H](C)O[C@H]2C(=O)Nc2ccnc([C@H](O)CO)c2)ccc(F)c1F` (single isomer, unassigned) [Compound 10, rel-(2R*,3R*,4S*,5S*)-3-(3,4-difluoro-2-methoxyphenyl)-N-(2-(1,2-dihydroxyethyl)pyridin-4-yl)-4-methoxy-5-methyltetrahydrofuran-2-carboxamide], the negative logarithm of the IC50 (pIC50) is at most 6.00.
Same read-out and setting: the figure for `COc1c([C@@H]2[C@H](OC)[C@H](C)O[C@H]2C(=O)Nc2ccnc([C@@](C)(O)CO)c2)ccc(F)c1F` (single isomer, unassigned) [Compound 11, rel-(2R*,3R*,4S*,5S*)-3-(3,4-difluoro-2-methoxyphenyl)-N-(2-(1,2-dihydroxypropan-2-yl)pyridin-4-yl)-4-methoxy-5-methyltetrahydrofuran-2-carboxamide] is at most 6.00; for `COc1c([C@@H]2[C@H](OC)[C@H](C)O[C@H]2C(=O)Nc2ccnc([C@](C)(O)CO)c2)ccc(F)c1F` (single isomer, unassigned) [Compound 12, rel-(2R*,3R*,4S*,5S*)-3-(3,4-difluoro-2-methoxyphenyl)-N-(2-(1,2-dihydroxypropan-2-yl)pyridin-4-yl)-4-methoxy-5-methyltetrahydrofuran-2-carboxamide] it is at most 6.00.
On to `COc1c([C@H]2[C@H](C(=O)Nc3ccnc([C@@H](O)CO)c3)OC(C)(C)[C@H]2OC)ccc(F)c1F` (single isomer, unassigned) [Compound 20], for which the pIC50 was 6.00 to 7.00.
Same read-out and setting: to `COc1c([C@@H]2[C@@H](C(=O)Nc3ccnc([C@@H](O)CO)c3)OC(C)(C)[C@@H]2OC)ccc(F)c1F` (single isomer, unassigned) [Compound 21] belongs at most 6.00; to `COc1c([C@H]2[C@H](C(=O)Nc3ccnc([C@H](O)CO)c3)OC(C)(C)[C@H]2OC)ccc(F)c1F` (single isomer, unassigned) [Compound 22], 6.00 to 7.00; to `COc1c([C@@H]2[C@@H](C(=O)Nc3ccnc([C@H](O)CO)c3)OC(C)(C)[C@@H]2OC)ccc(F)c1F` (single isomer, unassigned) [Compound 23], at most 6.00.
For `COc1c([C@@H]2[C@@H](C(=O)Nc3ccnc(C(N)=O)c3)OC(C)(C)[C@@H]2OC)ccc(F)c1F` (stereo in doubt) [Compound 19, rel-4-((2S,3S,4R)-3-(3,4-difluoro-2-methoxyphenyl)-4-methoxy-5,5-dimethyltetrahydrofuran-2-carboxamido)picolinamide], the negative-log IC50 (pIC50) was at most 6.00.

Still in this experiment, the particulars now being: HEK cells expressing a truncated form of human NaV 1.8; compound number without "*" (not marked as run in the presence of human serum).
Turning to `COc1c([C@H]2[C@H](C(=O)Nc3ccnc(C(N)=O)c3)OC(C)(C)[C@H]2OC)ccc(F)c1F` (stereo in doubt) [Compound 18, rel-4-((2R,3R,4S)-3-(3,4-difluoro-2-methoxyphenyl)-4-methoxy-5,5-dimethyltetrahydrofuran-2-carboxamido)picolinamide], the negative-log IC50 (pIC50) was 7.00 to 8.00.
For the molecule `COc1c([C@H]2[C@H](C(=O)Nc3ccnc(C(N)=O)c3)O[C@@](C)(C(F)(F)F)[C@H]2OC)ccc(F)c1F` [Compound 1, 4-((2R,3R,4S,5R)-3-(3,4-difluoro-2-methoxyphenyl)-4-methoxy-5-methyl-5-(trifluoromethyl)tetrahydrofuran-2-carboxamido)picolinamide], the negative logarithm of the IC50 (pIC50) is above 8.00.
On the same count and under the same terms, the figure for `COc1c([C@H]2[C@H](C(=O)Nc3ccnc(C(N)=O)c3)O[C@@](C)(C(F)(F)F)[C@H]2O)ccc(F)c1F` [Compound 2, 4-((2R,3R,4S,5R)-3-(3,4-difluoro-2-methoxyphenyl)-4-hydroxy-5-methyl-5-(trifluoromethyl)tetrahydrofuran-2-carboxamido)picolinamide] is 6.00 to 7.00; for `COc1c([C@H]2[C@H](C(=O)Nc3ccnnc3)O[C@@](C)(C(F)(F)F)[C@H]2O)ccc(F)c1F` [Compound 3, (2R,3R,4S,5R)-3-(3,4-difluoro-2-methoxyphenyl)-4-hydroxy-5-methyl-N-(pyridazin-4-yl)-5-(trifluoromethyl)tetrahydrofuran-2-carboxamide] it is at most 6.00; for `COc1c([C@H]2[C@H](C(=O)Nc3ccnnc3)O[C@@](C)(C(F)(F)F)[C@H]2OC)ccc(F)c1C` [Compound 4, (2R,3R,4S,5R)-3-(4-fluoro-2-methoxy-3-methylphenyl)-4-methoxy-5-methyl-N-(pyridazin-4-yl)-5-(trifluoromethyl)tetrahydrofuran-2-carboxamide] it is above 8.00.
Consider `COc1c([C@H]2[C@H](C(=O)Nc3ccnc(C(N)=O)c3)O[C@@](C)(C(F)(F)F)[C@H]2OC)ccc(F)c1C` [Compound 5, 4-((2R,3R,4S,5R)-3-(4-fluoro-2-methoxy-3-methylphenyl)-4-methoxy-5-methyl-5-(trifluoromethyl)tetrahydrofuran-2-carboxamido)picolinamide], for which the pIC50 is above 8.00.
The same measure, in the same setting: to `COc1c([C@H]2[C@H](C(=O)Nc3ccc([C@@H](O)CO)nc3)O[C@@](C)(C(F)(F)F)[C@H]2OC)ccc(F)c1C` [Compound 6, (2R,3R,4S,5R)-N-(6-((R)-1,2-dihydroxyethyl)pyridin-3-yl)-3-(4-fluoro-2-methoxy-3-methylphenyl)-4-methoxy-5-methyl-5-(trifluoromethyl)tetrahydrofuran-2-carboxamide] belongs 7.00 to 8.00; to `CO[C@H]1[C@@H](c2ccc(F)c(F)c2C)[C@H](C(=O)Nc2ccnc(C(N)=O)c2)O[C@@]1(C)C(F)(F)F` [Compound 7, 4-((2R,3R,4S,5R)-3-(3,4-difluoro-2-methylphenyl)-4-methoxy-5-methyl-5-(trifluoromethyl)tetrahydrofuran-2-carboxamido)picolinamide], above 8.00; to `COc1c([C@@H]2[C@H](OC)[C@H](C)O[C@H]2C(=O)Nc2ccnc(C(N)=O)c2)ccc(F)c1F` [Compound 8, 4-((2R,3R,4S,5S)-3-(3,4-difluoro-2-methoxyphenyl)-4-methoxy-5-methyltetrahydrofuran-2-carboxamido)picolinamide], 6.00 to 7.00.
`CCO[C@H]1[C@@H](c2ccc(F)c(F)c2OC)[C@H](C(=O)Nc2ccnc(C(N)=O)c2)O[C@H]1C` [Compound 13, 4-((2R,3R,4S,5S)-3-(3,4-difluoro-2-methoxyphenyl)-4-ethoxy-5-methyltetrahydrofuran-2-carboxamido)picolinamide]: the pIC50 is 6.00 to 7.00.
`COc1c([C@@H]2[C@H](OC(C)C)[C@H](C)O[C@H]2C(=O)Nc2ccnc(C(N)=O)c2)ccc(F)c1F` [Compound 14, 4-((2R,3R,4S,5S)-3-(3,4-difluoro-2-methoxyphenyl)-4-isopropoxy-5-methyltetrahydrofuran-2-carboxamido)picolinamide]: the pIC50 was 6.00 to 7.00.
Same read-out and setting: the figure for `COc1c([C@@H]2[C@H](OC(C)C)[C@H](C)O[C@H]2C(=O)Nc2ccc(C(N)=O)nc2)ccc(F)c1F` [Compound 15, 5-((2R,3R,4S,5S)-3-(3,4-difluoro-2-methoxyphenyl)-4-isopropoxy-5-methyltetrahydrofuran-2-carboxamido)picolinamide] is at most 6.00.

The term pIC50 denotes the negative decadic logarithm of the IC50, by convention in mol/L.

The values above are taken from patent publication US12662470B2, “Hydroxy and (halo)alkoxy substituted tetrahydrofurans as modulators of sodium channels” (VERTEX PHARMACEUTICALS INCORPORATED, priority 2021, dated 2026).
